Laboratory results reported in the supplement of paper PMC10307832.

How the values were obtained:
Test in all cases: relative viability (nuclei count vs DMSO), 5 days (fraction); higher = more cells survive
BX 795 + Trametinib = compound: O=C(NCCCNc1nc(Nc2cccc(NC(=O)N3CCCC3)c2)ncc1I)c1cccs1 [BX 795] + CC(=O)Nc1cccc(-n2c(=O)n(C3CC3)c(=O)c3c(Nc4ccc(I)cc4F)n(C)c(=O)c(C)c32)c1 [Trametinib] (partner 0.02 µM)
Outline: (§1)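 Lung cancer cell lines, seeded in 1536-well plates, were treated the following day by pin tool with a single drug or with five library-drug doses (not always all listed) in √10 steps on top of a fixed anchor-drug dose. Cells were fixed and nuclei stained in one step after 5 days, and nuclei were counted. Relative viability is the nuclei count for treated wells divided by that for vehicle wells, reported as medians of duplicate plates.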

BX 795 + Foretinib = compound: O=C(NCCCNc1nc(Nc2cccc(NC(=O)N3CCCC3)c2)ncc1I)c1cccs1 [BX 795] + COc1cc2c(Oc3ccc(NC(=O)C4(C(=O)Nc5ccc(F)cc5)CC4)cc3F)ccnc2cc1OCCCN1CCOCC1 [Foretinib] (partner 0.25 µM)
Outline: as §1

BX 795 + Lapatinib = compound: O=C(NCCCNc1nc(Nc2cccc(NC(=O)N3CCCC3)c2)ncc1I)c1cccs1 [BX 795] + CS(=O)(=O)CCNCc1ccc(-c2ccc3ncnc(Nc4ccc(OCc5cccc(F)c5)c(Cl)c4)c3c2)o1 [Lapatinib] (partner 2 µM)
Outline: as §1

BX 795 + Dasatinib = compound: O=C(NCCCNc1nc(Nc2cccc(NC(=O)N3CCCC3)c2)ncc1I)c1cccs1 [BX 795] + Cc1nc(Nc2ncc(C(=O)Nc3c(C)cccc3Cl)s2)cc(N2CCN(CCO)CC2)n1 [Dasatinib] (partner 0.075 µM)
Outline: as §1

BX 795 + Vorinostat = compound: O=C(NCCCNc1nc(Nc2cccc(NC(=O)N3CCCC3)c2)ncc1I)c1cccs1 [BX 795] + O=C(CCCCCCC(=O)Nc1ccccc1)NO [Vorinostat] (partner 1 µM)
Outline: as §1

Row | Cell Line | relative viability (BX 795 + Trametinib; first compound 0.04 µM) | relative viability (BX 795 + Trametinib; first compound 0.1265 µM) | relative viability (BX 795 + Trametinib; first compound 0.4 µM) | relative viability (BX 795 + Trametinib; first compound 1.265 µM) | relative viability (BX 795 + Foretinib; first compound 0.04 µM) | relative viability (BX 795 + Foretinib; first compound 0.1265 µM) | relative viability (BX 795 + Foretinib; first compound 0.4 µM) | relative viability (BX 795 + Foretinib; first compound 1.265 µM) | relative viability (BX 795 + Lapatinib; first compound 0.04 µM) | relative viability (BX 795 + Lapatinib; first compound 0.1265 µM) | relative viability (BX 795 + Lapatinib; first compound 0.4 µM) | relative viability (BX 795 + Lapatinib; first compound 1.265 µM) | relative viability (BX 795 + Dasatinib; first compound 0.04 µM) | relative viability (BX 795 + Dasatinib; first compound 0.1265 µM) | relative viability (BX 795 + Dasatinib; first compound 0.4 µM) | relative viability (BX 795 + Dasatinib; first compound 1.265 µM) | relative viability (BX 795 + Vorinostat; first compound 0.04 µM) | relative viability (BX 795 + Vorinostat; first compound 0.1265 µM) | relative viability (BX 795 + Vorinostat; first compound 0.4 µM) | relative viability (BX 795 + Vorinostat; first compound 1.265 µM)
1 | NCI-H1666 | 0.856 | 0.884 | 0.974 | 0.802 | 1.07 | 1.05 | 1.11 | 0.787 | 0.858 | 0.653 | 0.695 | 0.656 | 0.847 | 0.851 | 0.736 | 0.569 | 1.13 | 0.97 | 1.22 | 0.923
2 | NCI-H1734 | 0.714 | 0.651 | 0.69 | 0.562 | 0.836 | 0.982 | 0.83 | 0.456 | 0.993 | 1.15 | 0.79 | 0.801 | 0.446 | 0.465 | 0.474 | 0.398 | 0.888 | 0.773 | 0.482 | 0.34
3 | NCI-H1755 | 0.849 | 0.763 | 0.793 | 0.665 | 0.926 | 0.865 | 0.894 | 0.67 | 1.03 | 1.05 | 0.999 | 0.861 | 0.432 | 0.468 | 0.465 | 0.353 | 0.738 | 0.735 | 0.739 | 0.761
4 | NCI-H1793 | 0.404 | 0.403 | 0.526 | 0.344 | 0.887 | 0.663 | 0.834 | 0.266 | 0.534 | 0.682 | 0.875 | 0.785 | 0.408 | 0.403 | 0.361 | 0.356 | 0.888 | 0.753 | 0.803 | 0.293
